Laboratory results published in patent US9974304B2, “Use of macrocyclic picolinamides as fungicides” (DOW AGROSCIENCES LLC, priority 2013, dated 2018).

| Structure (SMILES) | melting point [°C] |
| --- | --- |
| COc1ccnc(C(=O)N[C@H]2COC[C@H](Oc3ccccc3)[C@@H](CCC(C)C)[C@H](C)OC2=O)c1OC(C)=O [Compound 47] | 66 to 70 |
| COc1ccnc(C(=O)N[C@H]2COC[C@H](Oc3ccccc3)[C@@H](Cc3ccccc3)[C@H](C)OC2=O)c1OC(C)=O [Compound 81] | 75 to 81 |
